Like-named read-outs stand apart in the source and are kept apart here. Starred links: 1 amine or outer side, 2 acyl side, 3 side chain; linkers in the order of their positions; H or OH if unused. Positions of bridges follow the written chain, without caps; N, C: chain ends. Non-standard residues stand in square brackets, D forms with d. Residues, ends and D or L forms follow the SMILES beside them. X1 = O=C([C@]1(CC=[*:3])CCCN1[*:1])[*:2]; Ala(cPr) = N[C@@H](CC1CC1)C(=O)O; S5 = C=CCCC[C@](C)(N)C(=O)O; Nle = CCCC[C@H](N)C(=O)O
Assays:
ERβ LBD = target: T1, ERβ LBD (Homo sapiens, UniProt Q92731); assay: Competition fluorescence polarization (FP) binding assay with FITC-ERL4 probe; conditions: read-out: EC50
T1 construct: pET28a+ vector containing ERβ LBD (residues from 261 to 500) along with an N-terminal His6-yBBr-TEV tag; His6 (N); yBBr (N); TEV cleavage site (N); made in house; host or cells: E. coli BL21(DE3) pLysS
Procedure: In addition to the PAMPA assay, to study the affinity of the first-generation ProLock™ stapled peptides to the Estrogen receptor p ligand-binding domain (ERβ LBD), a fluorescence polarization (FP) binding assay in competition format was used in the presence of the endogenous ERβ LBD ligand estradiol. Competition Fluorescence Polarization (FP) assay was performed on the peptides to determine their half-maximal effective concentration (EC50). To do this, FITC labeled ERL4 peptide (FITC-βAla-His-Pro-Leu-Leu-Nle-Arg-Leu-Leu-Leu-Ser-Pro-CONH2) was synthesized to be used as a fluorescence probe based on existing literature (Fuchs et al., Journal of the American Chemical Society 2013, 135 (11), 4364-4371). Direct FP was performed in black 384-well plates (Corning). The final volume of each assay well was 40 μL with constant concentration of FITC labeled ERL4 peptide (10 nM) and variable concentrations of ERβ LBD protein.
ERβ LBD expression and purification was performed as follows. BL21(DE3) pLysS E. coli cells were transformed with a pET28a+ vector containing ERβ LBD (residues from 261 to 500) along with an N-terminal His6-yBBr-TEV tag. An overnight culture in 10 mL of TB media containing 50 μg/mL kanamycin was prepared from a single bacterial colony. The overnight culture was subsequently added to 1 liter of autoclaved TB media containing 50 μg/mL kanamycin and shaken at 37° C. until an OD of 0.6-0.8 was reached. IPTG was added to the culture and left shaking for 6 hours. Bacterial culture was pelleted and resuspended in lysis buffer. Resuspended bacterial culture was incubated at 0° C. for 10 minutes before sonication at 65% amplitude with 10-sec cycles using a Branson Sonifier. The lysate was then cleared by centrifugation at 8000×g for 20 min. […] The expected molecular weight of the ERβ LBD protein is 30.8 KDa, which molecular weight was confirmed by SDS PAGE analysis. Purified ERβ LBD was concentrated to 90 μM and was stored at −80° C. buffer.
Competition FP assays were also employed. These were performed in black 384-well plates (Corning). The final volume of each assay well was 80 μL containing constant concentrations of estradiol (1 μM) and FITC labeled ERL4 (10 nM). The ERβ LBD concentration was held constant (200 nM) while varying the concentration of ProLock stapled peptides (3-fold dilution from 10 μM). Upon addition of samples to each well, the plate was centrifuged for 10 seconds at 3000 rpm and incubated at 4° C. for 1 hour. FP measurements were performed at room temperature with excitation and emission wavelengths at 485 and 535 nm using a Clariostar microplate reader (BMG Labtech). Each plate had high and low polarization samples, which are used to normalize the assay data. The competition FP results were analyzed by Prism 7 (GraphPad). The non-linear regression analysis of the data was used to determine the half-maximal effective concentration (EC50) of ProLock stapled peptides. […] The normalized FP values shown in FIG. 6 are mean±S.E.M of at least four independent replicates.

in vitro = assay: in vitro; set-up: dose or concentration left out as unconfirmed; conditions: PAMPA, pH 7.4, PAMPA Pe
Procedure: (§1) The synthesized peptides were first analyzed with a PAMPA assay. […] The PAMPA plate system is composed of two compartments, donor and acceptor, which are separated by a phospholipid-infused membrane. The amount of compound transferred from the acceptor well into the donor well over a period of incubation time is used to determine the passive permeability of a compound.
(§2) The two plates are separated by a membrane infused with phospholipids. […] The amount of compound transferred from one well to the other is usually quantified by reverse-phase HPLC-mass spectrometry.
(§3) Briefly, all PAMPA assays were performed using the commercially available PAMPA plate system from Corning, which uses a proprietary membrane composed of structured phospholipids. […] To prevent nonspecific peptide loss to the plates, the acceptor wells of the Corning PAMPA plates were blocked overnight with 5% nonfat milk with 0.1% Triton X-100 in Dulbecco's phosphate buffer saline (DPBS) at pH=7.4, followed by extensive washing prior to assays. The donor wells and membrane itself were not exposed to the milk/Triton solution. […] The PAMPA experiments described herein were performed using plates from Corning Lot #9112010, Lot #9112011 and Lot #7317005 (Corning Inc., Corning, New York, USA).
(§4) To set up PAMPA assays, the PAMPA plate system was equilibrated at room temperature for at least an hour before setting up the assay. The acceptor plate preincubated with milk blocking solution was washed with water, followed by DPBS buffer. 300 μL of 5% DMSO in DPBS at pH=7.4 was added to the pre-blocked acceptor plate, and 200 μL of 10M compounds made with 5% DMSO in DPBS at pH=7.4 was added to the donor plate. The donor plate with a lid was then carefully inserted into the acceptor plate with no bubbles formed at the interface of donor and acceptor plates. The PAMPA assay plate was covered with aluminum foil and placed in a 37° C. incubator for 5 hours. 10 M input solution of all compounds was diluted 20-fold to a final acetonitrile concentration of 50% before analyzing by reverse-phase HPLC and Q-Exactive plus mass spectrometer. At the end of 5 hours, PAMPA donor and acceptor plates were separated and diluted 20-fold and 2-fold respectively to a final acetonitrile concentration of 50%. The diluted solutions of PAMPA donor and acceptor plates were analyzed by reverse-phase HPLC and Q-Exactive plus mass spectrometer.
(§5) Pe measures the passive permeability of each compound tested in the PAMPA assay, whereas % retention measures the amount of compound retained in solution at the end of the assay compared to the input sample.

[1] = for % Retention: PAMPA
Procedure: as §1, §2, §3, §4, §5

[2] = CHI Log D measurement (chromatographic hydrophobicity index); conditions: pH 7.4
Procedure: Finally, to measure hydrophobicity, a CHI Log D measurement assay was employed. […] The retention time measurements were performed using reverse-phase HPLC and Q-Exactive mass spectrometer with Phenomenex Gemini C-18 column (3 uM, 50×3 mm). The reverse-phase chromatography was performed using a gradient of 10 mM ammonium acetate at pH=7.4 and acetonitrile solvents. Using the identical solvent setup, gradient, and flowrate, ProLock stapled peptides were injected onto the column to determine the tR of peptides. Using the calibration curve shown in FIG. 7, tR is converted into CHI. CHI was converted into CHI Log D using the following equation.

[3] = Table 4, binding to ER LBD, estradiol 1 μM, FITC-ERL4 10 nM, ERβ LBD 200 nM, mean ± S.E.M, at least four replicates
[4] = Table 2, binding to ER LBD, estradiol 1 μM, FITC-ERL4 10 nM, ERβ LBD 200 nM, mean ± S.E.M, at least four replicates
[5] = reverse-phase HPLC, Phenomenex Gemini C-18 column
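Wherever % Retention is given: Phospholipid-membrane PAMPA, donor and acceptor in DPBS pH 7.4 with 5% DMSO, 37 °C for 5 h, compound in each well quantified by reverse-phase HPLC-MS.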
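Wherever PAMPA Pe (text) is given: Phospholipid-membrane PAMPA, donor and acceptor in DPBS pH 7.4 with 5% DMSO, 37 °C for 5 h, compound in each well quantified by reverse-phase HPLC-MS.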
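Wherever PAMPA Pe is given: Phospholipid-membrane PAMPA, donor and acceptor in DPBS pH 7.4 with 5% DMSO, 37 °C for 5 h, compound in each well quantified by reverse-phase HPLC-MS.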
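Wherever Papp is given: Phospholipid-membrane PAMPA, donor and acceptor in DPBS pH 7.4 with 5% DMSO, 37 °C for 5 h, compound in each well quantified by reverse-phase HPLC-MS.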

Compound: CNC(=O)[C@H](CC(=O)O)NC(=O)[C@H](CCC(N)=O)NC(=O)[C@H](CC(C)C)NC(=O)[C@H](CC(C)C)NC(=O)[C@H](Cc1ccc(O)cc1)NC(=O)[C@]1(C)CCCC=CC[C@]2(CCCN2C(C)=O)C(=O)N[C@@H](C)C(=O)N[C@@H](CC(C)C)C(=O)N1 (single isomer, unassigned) [PLL7-8, Ac-PL3-Ala-Leu-S5-Tyr-Leu-Leu-Gln-Asp-NHMe]
- EC50 (ERβ LBD; [3]): > 10 µM
- Papp at 5 h (in vitro): 1.4 ± 0.3 ×10⁻⁶ cm/s
- % Retention [1]: 107 ± 3%
- chromatographic logD [2]: 1.7

Compound: CNC(=O)[C@H](CC(=O)O)NC(=O)[C@H](CC(C)C)NC(=O)[C@H](CC(C)C)NC(=O)[C@H](Cc1ccc(O)cc1)NC(=O)[C@H](CCCNC(=N)N)NC(=O)[C@]1(C)CCCC=CC[C@]2(CCCN2C(C)=O)C(=O)N[C@@H](C)C(=O)N[C@@H](CC(C)C)C(=O)N1 [PLL4-4, Ac-PL3-Ala-Leu-S5-Arg-Tyr-Leu-Leu-Asp-NHMe] (Ac-[X1]AL[S5]RYLLD-NHMe; staple 1-4)
- EC50 (ERβ LBD; [4]): 7.9 ± 0.4 µM
- Papp at 5 h (in vitro): 0.5 ± 0.1 ×10⁻⁶ cm/s
- PAMPA Pe (text) [1]: 0.3-0.7 ×10^−6 cm/sec
- % Retention [1]: 71 ± 2%
- chromatographic logD [2, 5]: 2.3

Compound: CNC(=O)[C@H](CC(=O)O)NC(=O)[C@H](CC(=O)O)NC(=O)[C@H](CC(C)C)NC(=O)[C@H](CC(C)C)NC(=O)[C@H](Cc1ccc(O)cc1)NC(=O)[C@]1(C)CCCC=CC[C@]2(CCCN2C(C)=O)C(=O)N[C@@H]([C@@H](C)O)C(=O)N[C@@H](CC(C)C)C(=O)N1 (single isomer, unassigned) [PLL7-1, Ac-PL3-Thr-Leu-S5-Tyr-Leu-Leu-Asp-Asp-NHMe]
- EC50 (ERβ LBD; [3]): > 10 µM
- Papp at 5 h (in vitro): 2.1 ± 0.4 ×10⁻⁶ cm/s
- PAMPA Pe (text) [1]: 2.1e-06 cm/s
- % Retention [1]: 114 ± 3%
- chromatographic logD [2]: 1

Compound: CNC(=O)[C@H](CC(=O)O)NC(=O)[C@H](CC(=O)O)NC(=O)[C@H](CC(C)C)NC(=O)[C@H](CC(C)C)NC(=O)[C@H](Cc1ccc(O)cc1)NC(=O)[C@]1(C)CCCC=CC[C@]2(CCCN2C(C)=O)C(=O)N[C@@H](CC(C)C)C(=O)N[C@@H](CC(C)C)C(=O)N1 [PLL5-2, Ac-PL3-Leu-Leu-S5-Tyr-Leu-Leu-Asp-Asp-NHMe] (Ac-[X1]LL[S5]YLLDD-NHMe; staple 1-4)
- EC50 (ERβ LBD; binding towards the ERβ LBD): 0.8 to 1.3 µM
- Papp at 5 h (in vitro): 1.6 ± 0.1 ×10⁻⁶ cm/s
- PAMPA Pe [1]: 1.6 ± 0.1 (×10^−6) cm/sec
- % Retention [1]: 97 ± 2%
- chromatographic logD [2, 5]: 1.7

Compound: CNC(=O)[C@H](CC(=O)O)NC(=O)[C@H](Cc1c[nH]cn1)NC(=O)[C@H](CC(C)C)NC(=O)[C@H](CC(C)C)NC(=O)[C@H](CCCNC(=N)N)NC(=O)[C@]1(C)CCCC=CC[C@]2(CCCN2C(C)=O)C(=O)N[C@@H](CC(C)C)C(=O)N[C@@H](CC(C)C)C(=O)N1 [PLL7-9, Ac-PL3-Leu-Leu-S5-Arg-Leu-Leu-His-Asp-NHMe] (Ac-[X1]LL[S5]RLLHD-NHMe; staple 1-4)
- EC50 (ERβ LBD; [3]): 1.3 ± 0.1 µM
- EC50 (ERβ LBD; binding towards the ERβ LBD): 0.8 to 1.3 µM
- Papp at 5 h (in vitro): 1.1 ± 0.2 ×10⁻⁶ cm/s
- PAMPA Pe [1]: 1.1 ± 0.2 (×10^−6) cm/sec
- PAMPA Pe (text) [1]: exceeding 1 ×10^−6 cm/sec
- % Retention [1]: 85 ± 4%
- chromatographic logD [2, 5]: 2.1

Compound: CNC(=O)[C@@H](NC(=O)[C@H](CC(C)C)NC(=O)[C@H](CC(C)C)NC(=O)[C@H](Cc1ccc(O)cc1)NC(=O)[C@]1(C)CCCC=CC[C@]2(CCCN2C(C)=O)C(=O)N[C@@H](CC(C)C)C(=O)N[C@@H](CC(C)C)C(=O)N1)[C@@H](C)O [PLL5-10, Ac-PL3-Leu-Leu-S5-Tyr-Leu-Leu-Thr-NHMe] (Ac-[X1]LL[S5]YLLT-NHMe; staple 1-4)
- EC50 (ERβ LBD; [3]): 1.5 ± 0.2 µM
- Papp at 5 h (in vitro): ≤ 0.1 ×10⁻⁶ cm/s
- % Retention [1]: 34 ± 0%
- chromatographic logD [2, 5]: 3.8

Compound: CCCC[C@H](NC(=O)[C@]1(C)CCCC=CC[C@]2(CCCN2C(C)=O)C(=O)N[C@@H](CC(C)C)C(=O)N[C@@H](CCCNC(=N)N)C(=O)N1)C(=O)N[C@@H](CC(C)C)C(=O)N[C@@H](C)C(=O)N[C@@H](Cc1ccc(O)cc1)C(=O)NC [PLL4-12, Ac-PL3-Leu-Arg-S5-Nle-Leu-Ala-Tyr-NHMe] (Ac-[X1]LR[S5][Nle]LAY-NHMe; staple 1-4)
- EC50 (ERβ LBD; [4]): 7.5 ± 0.4 µM
- Papp at 5 h (in vitro): ≤ 0.1 ×10⁻⁶ cm/s
- % Retention [1]: 42 ± 2%
- chromatographic logD [2, 5]: 2.7

Compound: CNC(=O)[C@H](CC(=O)O)NC(=O)[C@H](CC(C)C)NC(=O)[C@H](CC(C)C)NC(=O)[C@H](CCCNC(=N)N)NC(=O)[C@]1(C)CCCC=CC[C@]2(CCCN2C(C)=O)C(=O)N[C@@H](CC(C)C)C(=O)N[C@@H](CC(C)C)C(=O)N1 [PLL5-8, Ac-PL3-Leu-Leu-S5-Arg-Leu-Leu-Asp-NHMe] (Ac-[X1]LL[S5]RLLD-NHMe; staple 1-4)
- EC50 (ERβ LBD; [3]): 7.9 ± 0.4 µM
- Papp at 5 h (in vitro): 0.9 ± 0.2 ×10⁻⁶ cm/s
- % Retention [1]: 104 ± 3%
- chromatographic logD [2, 5]: 2.1

Compound: CNC(=O)[C@H](CC(=O)O)NC(=O)[C@H](CC(C)C)NC(=O)[C@H](CC(C)C)NC(=O)[C@H](Cc1ccc(O)cc1)NC(=O)[C@]1(C)CCCC=CC[C@]2(CCCN2C(C)=O)C(=O)N[C@@H]([C@@H](C)O)C(=O)N[C@@H](CC(C)C)C(=O)N1 (single isomer, unassigned) [PLL5-5, Ac-PL3-Thr-Leu-S5-Tyr-Leu-Leu-Asp-NHMe]
- EC50 (ERβ LBD; [3]): > 10 µM
- Papp at 5 h (in vitro): 1.4 ± 0.2 ×10⁻⁶ cm/s
- % Retention [1]: 101 ± 5%
- chromatographic logD [2]: 1.4

Compound: CNC(=O)[C@H](CC(N)=O)NC(=O)[C@H](CC(C)C)NC(=O)[C@H](CC(C)C)NC(=O)[C@H](Cc1c[nH]cn1)NC(=O)[C@]1(C)CCCC=CC[C@]2(CCCN2C(C)=O)C(=O)N[C@@H](C)C(=O)N[C@@H](CC(C)C)C(=O)N1 (single isomer, unassigned) [PLL7-20, Ac-PL3-Ala-Leu-S5-His-Leu-Leu-Asn-NHMe]
- EC50 (ERβ LBD; [3]): > 10 µM
- Papp at 5 h (in vitro): 1.3 ± 0.1 ×10⁻⁶ cm/s
- PAMPA Pe [1]: 1.3 ± 0.1 (×10^−6) cm/sec
- % Retention [1]: 104 ± 2%
- chromatographic logD [2]: 2.1

Compound: CC[C@H](C)[C@@H]1NC(=O)[C@]2(CC=CCCC[C@@](C)(C(=O)N[C@@H](CCCNC(=N)N)C(=O)N[C@@H](CC(C)C)C(=O)N[C@@H](CC(C)C)C(=O)N[C@@H](CCC(N)=O)C(=O)N[C@@H](Cc3ccc(O)cc3)C(=O)NC)NC(=O)[C@H](CC(C)C)NC1=O)CCCN2C(C)=O [PLL4-1, Ac-PL3-Ile-Leu-S5-Arg-Leu-Leu-Gln-Tyr-NHMe] (Ac-[X1]IL[S5]RLLQY-NHMe; staple 1-4)
- EC50 (ERβ LBD; binding towards the ERβ LBD): 0.2 µM
- Papp at 5 h (in vitro): ≤ 0.1 ×10⁻⁶ cm/s
- % Retention [1]: 75 ± 2%
- chromatographic logD [2, 5]: 2.9

Compound: CNC(=O)[C@H](CC(=O)O)NC(=O)[C@H](CCC(N)=O)NC(=O)[C@H](CC(C)C)NC(=O)[C@H](CC(C)C)NC(=O)[C@H](CCCNC(=N)N)NC(=O)[C@]1(C)CCCC=CC[C@]2(CCCN2C(C)=O)C(=O)N[C@@H](CC2CC2)C(=O)N[C@@H](CC(C)C)C(=O)N1 [PLL7-5, Ac-PL3-Cpa-Leu-S5-Arg-Leu-Leu-Gln-Asp-NHMe] (Ac-[X1][Ala(cPr)]L[S5]RLLQD-NHMe; staple 1-4)
- EC50 (ERβ LBD; [3]): 4.1 ± 0.3 µM
- Papp at 5 h (in vitro): 0.8 ± 0.2 ×10⁻⁶ cm/s
- % Retention [1]: 109 ± 2%
- chromatographic logD [2, 5]: 2

— US20230357320A1, “HELICAL STAPLED PEPTIDES AND USES THEREOF” (FOG PHARMACEUTICALS, INC., priority 2020, published 2023)
